Reference: patent US10342749B2, “Antiperspirant compositions comprising alums” (Conopco, Inc., priority 2014, dated 2019)

How the values were obtained:
[1] = system: human skin; test: Mitigation of irritation by inorganic base (inventors' research); format: in vivo; details: as third salt (metal oxide)
[2] = at 30° C.; cited from earlier work

Which results are given for `[O]=[Zn]` [zinc oxide]?
mitigating irritation [1]: ineffective; water solubility [2]: 1.6 µg/mL
